Reference: the supplement of paper PMC11451515

System: P12-Ichikawa
Assay: cell viability relative to DMSO control; higher = less cytotoxic
Conditions: 48 h
Procedure, shortened: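 NOMO1 or SEM cells were plated at 500 cells/well and P12-Ichikawa cells at 1000 cells/well in 1536-well plates (5 μl), after each leukemia line had been adapted for at least four passages in each medium. Pin dosing delivered library compounds in DMSO at 11 threefold concentrations, 47 μM to 0.79 nM. CellTiter-Glo One luminescence was read after 48 h at 37°C. Viability is reported as a per-plate percentage of DMSO wells, with cell-free wells as background.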

[1] = HPLM + 10% dialyzed FBS, 0.000781 µM
[2] = HPLM + 10% dialyzed FBS, 0.00234 µM
[3] = HPLM + 10% dialyzed FBS, 0.00702 µM
[4] = HPLM + 10% dialyzed FBS, 0.0211 µM
[5] = HPLM + 10% dialyzed FBS, 0.0632 µM
[6] = HPLM + 10% dialyzed FBS, 0.19 µM
[7] = HPLM + 10% dialyzed FBS, 0.569 µM
[8] = HPLM + 10% dialyzed FBS, 1.71 µM
[9] = HPLM + 10% dialyzed FBS, 5.12 µM
[10] = HPLM + 10% dialyzed FBS, 15.4 µM
[11] = HPLM + 10% dialyzed FBS, 46.1 µM
[12] = RPMI 5 mM glucose + 10% FBS, 0.000781 µM
[13] = RPMI 5 mM glucose + 10% FBS, 0.00234 µM
[14] = RPMI 5 mM glucose + 10% FBS, 0.00702 µM
[15] = RPMI 5 mM glucose + 10% FBS, 0.0211 µM
[16] = RPMI 5 mM glucose + 10% FBS, 0.0632 µM
[17] = RPMI 5 mM glucose + 10% FBS, 0.19 µM
[18] = RPMI 5 mM glucose + 10% FBS, 0.569 µM
[19] = RPMI 5 mM glucose + 10% FBS, 1.71 µM
[20] = RPMI 5 mM glucose + 10% FBS, 5.12 µM
[21] = RPMI 5 mM glucose + 10% FBS, 15.4 µM
[22] = RPMI 5 mM glucose + 10% FBS, 46.1 µM
[23] = RPMI 5 mM glucose + 10% dialyzed FBS, 0.000781 µM
[24] = RPMI 5 mM glucose + 10% dialyzed FBS, 0.00234 µM
[25] = RPMI 5 mM glucose + 10% dialyzed FBS, 0.00702 µM
[26] = RPMI 5 mM glucose + 10% dialyzed FBS, 0.0211 µM
[27] = RPMI 5 mM glucose + 10% dialyzed FBS, 0.0632 µM
[28] = RPMI 5 mM glucose + 10% dialyzed FBS, 0.19 µM
[29] = RPMI 5 mM glucose + 10% dialyzed FBS, 0.569 µM
[30] = RPMI 5 mM glucose + 10% dialyzed FBS, 1.71 µM
[31] = RPMI 5 mM glucose + 10% dialyzed FBS, 5.12 µM
[32] = RPMI 5 mM glucose + 10% dialyzed FBS, 15.4 µM
[33] = RPMI 5 mM glucose + 10% dialyzed FBS, 46.1 µM

For `CC1(CN2CCC(n3c(=O)[nH]c4ccccc43)CC2)OCc2ccccc2-n2cccc21` (stereo unspecified), the cell viability [1] was 99.7%, the cell viability [2] was 97.6% and the cell viability [3] was 105%. The cell viability [4] was 98.7%, the cell viability [5] was 102% and the cell viability [6] was 104%. The cell viability [7] was 94.4%, the cell viability [8] was 99.9% and the cell viability [9] was 99%. The cell viability [10] was 99.6%, the cell viability [11] was 92.8% and the cell viability [12] was 96%. The cell viability [13] was 99.9%, the cell viability [14] was 93.1% and the cell viability [15] was 94.8%. For the same compound, the cell viability [16] was 98.3%, the cell viability [17] was 98.5% and the cell viability [18] was 106%. It also gave a cell viability [19] of 109%, a cell viability [20] of 102% and a cell viability [21] of 96.8%. For the same compound, the cell viability [22] was 87.9%, the cell viability [23] was 94% and the cell viability [24] was 92.5%. It also gave a cell viability [25] of 96.4%, a cell viability [26] of 97.2% and a cell viability [27] of 97.7%. For the same compound, the cell viability [28] was 99.2%, the cell viability [29] was 94% and the cell viability [30] was 93.8%. It also gave a cell viability [31] of 98.7%, a cell viability [32] of 94.3% and a cell viability [33] of 98.5%.
`N#CC(c1ccnc(NCCc2cccnc2)n1)c1nc2ccccc2s1` (stereo unspecified) was tested, and the cell viability [1] was 115%, the cell viability [2] was 128% and the cell viability [3] was 120%. It also gave a cell viability [4] of 127%, a cell viability [5] of 127% and a cell viability [6] of 134%. The cell viability [7] was 131%, the cell viability [8] was 121% and the cell viability [9] was 141%. For the same compound, the cell viability [10] was 141%, the cell viability [11] was 118% and the cell viability [23] was 122%. For the same compound, the cell viability [24] was 136%, the cell viability [25] was 122% and the cell viability [26] was 145%. The cell viability [27] was 142%, the cell viability [28] was 152% and the cell viability [29] was 151%. For the same compound, the cell viability [30] was 148%, the cell viability [31] was 140% and the cell viability [32] was 133%. For the same compound, the cell viability [33] was 120%.
Compound `OC[C@H]1O[C@H](C[C@@H]1O)N2\C=C(F)/C(=O)NC2=O` has a cell viability [1] of 123%, a cell viability [2] of 109% and a cell viability [3] of 110%. The cell viability [4] was 92.4%, the cell viability [5] was 78.1% and the cell viability [6] was 47.9%. For the same compound, the cell viability [7] was 33.3%, the cell viability [8] was 28.5% and the cell viability [9] was 20.6%. It also gave a cell viability [10] of 22.7%, a cell viability [11] of 11% and a cell viability [12] of 115%. The cell viability [13] was 104%, the cell viability [14] was 101% and the cell viability [15] was 106%. For the same compound, the cell viability [16] was 92.2%, the cell viability [17] was 55.2% and the cell viability [18] was 51.6%. It also gave a cell viability [19] of 38.1%, a cell viability [20] of 25.6% and a cell viability [21] of 33.6%. For the same compound, the cell viability [22] was 30.1%, the cell viability [23] was 124% and the cell viability [24] was 109%. For the same compound, the cell viability [25] was 116%, the cell viability [26] was 109% and the cell viability [27] was 76.9%. The cell viability [28] was 45.7%, the cell viability [29] was 34.3% and the cell viability [30] was 30.3%. For the same compound, the cell viability [31] was 21.8%, the cell viability [32] was 27.6% and the cell viability [33] was 19.4%.
Work on `N#Cc1ccc(Oc2ccc3c(c2)COB3O)cc1` yielded a cell viability [1] of 112%, a cell viability [2] of 119% and a cell viability [3] of 123%. The cell viability [4] was 90.6%, the cell viability [5] was 129% and the cell viability [6] was 125%. It also gave a cell viability [7] of 125%, a cell viability [8] of 102% and a cell viability [9] of 81.5%. For the same compound, the cell viability [10] was 80.6%, the cell viability [11] was 33.9% and the cell viability [12] was 117%. For the same compound, the cell viability [13] was 120%, the cell viability [14] was 127% and the cell viability [15] was 81.7%. It also gave a cell viability [16] of 135%, a cell viability [17] of 125% and a cell viability [18] of 139%. For the same compound, the cell viability [19] was 138%, the cell viability [20] was 123% and the cell viability [21] was 124%. It also gave a cell viability [22] of 53.1%, a cell viability [23] of 119% and a cell viability [24] of 117%. The cell viability [25] was 113%, the cell viability [26] was 83.9% and the cell viability [27] was 132%. The cell viability [28] was 120%, the cell viability [29] was 135% and the cell viability [30] was 139%. The cell viability [31] was 130%, the cell viability [32] was 124% and the cell viability [33] was 38.6%.
